Results published in patent US20220289657A1, “COMPOSITION FOR PREVENTING OR TREATING BACTERIAL INFECTIOUS DISEASE COMPRISING 4-GINGEROL DERIVATIVE COMPOUND AS ACTIVE INGREDIENT” (KOREA UNIVERSITY RESEARCH AND BUSINESS FOUNDATION, SEJONG …, priority 2019, published 2022).
Marks after values point to notes of the source that are not given here.

Molecular target: T1, RhlR (Pseudomonas aeruginosa, UniProt P54292)
T1 construct: expressed in transfected cells; host or cells: E. coli sdiA variant co-transformed with pJN105R and pSC11 (RhlA::lacZ)
T1 sequence (P54292 whole entry): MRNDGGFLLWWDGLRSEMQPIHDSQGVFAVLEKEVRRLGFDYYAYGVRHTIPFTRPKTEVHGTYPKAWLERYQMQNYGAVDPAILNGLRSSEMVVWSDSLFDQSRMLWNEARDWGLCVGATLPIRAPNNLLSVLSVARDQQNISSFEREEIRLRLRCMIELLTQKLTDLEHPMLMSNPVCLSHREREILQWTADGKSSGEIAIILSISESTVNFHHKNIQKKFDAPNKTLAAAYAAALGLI
Assay: cell-based
Details: footnotes not given; for activity at 100 µM: read-out: Relative RhlR activity Agonism, Table 2, matches the 100 column of Table 3; for remaining activity at 100 µM: read-out: Relative RhlR activity Antagonism, Table 2; for remaining activity at 100 µM / Relative RhlR activity Antagonism: 100 μM per Table 3, lower = stronger antagonism; for Relative RhlR activity Antagonism: Table 2
Method: Escherichia coli (E. coli) DH5a includes LuxR homolog SdiA detecting endogenous AHL synthesized by other microbial species, particularly, BHL.
For RhlR reporter strain analysis, the present invention used pJN105R (RhlR expression plasmid), anspSC11 (RhlA::lacZ fusion plasmid) and an sdiA variant co-transformed with the two plasmids. 1% of an overnight-cultured reporter strain (OD 595 nm=1.0) supplemented with 10 μg/mL gentamicin and 50 μg/mL ampicillin was cultured in a Luria-Bertani (LB) medium (Difco, Detroit, Mich., USA) with a positive control or a compound (0-1000 μM) and BHL (0-10 μM) (Sigma-Aldrich) at 37° C. for 2 hours. 0.4% arabinose (Sigma-Aldrich) was reacted with the resulting product at 37° C. for 1.5 hours. β-galactosidase activity was evaluated using a Tropix plus kit (Applied Biosystems, CA, USA), and OD 595 nm and luminescence were measured using a VICTOR x5 multimode plate reader (PerkinElmer, Waltham, Mass., USA). Relative RhlR activity was quantified by measuring luminescence at OD 595 nm. In addition, for LasR reporter strain analysis, the present invention used pJN105L (LasR expression plasmid) and pSC11 (lasI::lacZ fusion plasmid), E. coli DH5a co-transformed with the two plasmids, and OdDHL (Sigma-Aldrich).

| SMILES | activity at 100 µM [%] | remaining activity at 100 µM [%] | Relative RhlR activity Antagonism |
| --- | --- | --- | --- |
| CCCC(O)CC(=O)CCc1ccc(F)c(F)c1 (centres unmarked) [Compound 12o, 1-(3,4-Difluorophenyl)-5-hydroxyoctan-3-one] | 1 | 49 | – |
| CCCC(O)CC(=O)CCc1ccc(O)c(OCC)c1 (centres unmarked) [Compound 12n, 1-(3-Ethoxy-4-hydroxyphenyl)-5-hydroxyoctan-3-one] | 1 | 98 | – |
| CCCC(O)CC(=O)/C=C/c1ccc(O)c(F)c1 (centres unmarked) [Compound 11m, (E)-1-(3-Fluoro-4-hydroxyphenyl)-5-hydroxyoct-1-en-3-one] | 2 | 60 | – |
| CCCC(O)CC(=O)/C=C/c1ccc(C)c(C)c1 (centres unmarked) [Compound 11p, (E)-1-(3,4-Dimethylphenyl)-5-hydroxyoct-1-en-3-one] | 2 | 72 | 72** % |
| CCCCCC(O)C#Cc1ccc(F)c(F)c1 (racemic) [Compound 35a, 1-(3,4-Difluorophenyl)oct-1-yn-3-ol] | 3 | 74 | – |
| CCCC(O)CC(=O)/C=C/c1cc(F)cc(OC)c1 (centres unmarked) [Compound 11r, (E)-1-(3-Fluoro-5-methoxyphenyl)-5-hydroxyoct-1-en-3-one] | 3 | 74 | 74** % |
| CCCCCC(O)CCc1ccc(O)c(OC)c1 (centres unmarked) [Compound 27] | 2 | 45 | 45** % |
| CCCC(O)CC(=O)CCc1ccccc1 (centres unmarked) [Compound 12b, 5-Hydroxy-1-phenyloctan-3-one] | 4 | 88 | – |
| CCCCCC(=O)CCc1ccc(F)c(F)c1 [Compound 14a, 1-(3,4-Difluorophenyl)octan-3-one] | 4 | 55 | – |
| CCCC(O)CC(=O)/C=C/c1ccc(O)c(OCC)c1 (centres unmarked) [Compound 11n, (E)-1-(3-Ethoxy-4-hydroxyphenyl)-5-hydroxyoct-1-en-3-one] | 1 | 91 | – |
| CCCC(O)CC(=O)/C=C/c1ccc(OC)c(OC)c1 (centres unmarked) [Compound 11l, (E)-1-(3,4-Dimethoxyphenyl)-5-hydroxyoct-1-en-3-one] | 1 | 69 | – |
| CCCC(O)CC(=O)/C=C/c1ccc(Cl)cc1 (centres unmarked) [Compound 11h, (E)-1-(4-Chlorophenyl)-5-hydroxyoct-1-en-3-one] | 1 | 64 | 64** % |
| CCCCCC(O)CCc1ccc(F)c(F)c1 (centres unmarked) [Compound 16a, 1-(3,4-Difluorophenyl)octan-3-ol] | 5 | 61 | – |
| CCCC(O)CC(=O)CCc1ccc(O)c(OC)c1 (centres unmarked) [Compound 2, 5-Hydroxy-1-(4-hydroxy-3-methoxyphenyl)octan-3-one] | 3 | 54 | 54** % |
| CCCC(O)CC(=O)CCc1ccc(N(C)C)cc1 (centres unmarked) [Compound 12j, 1-(4-(Dimethylamino)phenyl)-5-hydroxyoctan-3-one] | 1 | 74 | – |
| CCCC(O)CC(=O)CCc1ccc(C)c(C)c1 (centres unmarked) [Compound 12p, 1-(3,4-Dimethylphenyl)-5-hydroxyoctan-3-one] | 3 | 82 | – |
| CCCC(O)CC(=O)CCc1ccc(C)cc1 (centres unmarked) [Compound 12i, 5-Hydroxy-1-(p-tolyl)octan-3-one] | 1 | 76 | – |
| CCCCCCCC(O)CC(=O)CCc1ccc(O)c(OC)c1 (centres unmarked) [Compound 6, 5-Hydroxy-1-(4-hydroxy-3-methoxyphenyl)dodecan-3-one] | 2 | 90 | – |
| CCCC(O)CC(=O)/C=C/c1ccccc1 (centres unmarked) [Compound 11b, (E)-5-Hydroxy-1-phenyloct-1-en-3-one] | 4 | 93 | 93* % |
| CCCC(O)CC(=O)/C=C/c1ccc(N(C)C)cc1 (centres unmarked) [Compound 11j, (E)-1-(4-(Dimethylamino)phenyl)-5-hydroxyoct-1-en-3-one] | 2 | 53 | 53** % |
| CCCC(O)CC(=O)/C=C/c1cccc(O)c1 (centres unmarked) [Compound 11e, (E)-5-Hydroxy-1-(3-hydroxyphenyl)oct-1-en-3-one] | 2 | 78 | 78** % |
| CCCC(O)CC(=O)/C=C/c1ccc(F)c(OC)c1 (centres unmarked) [Compound 11q, (E)-1-(4-Fluoro-3-methoxyphenyl)-5-hydroxyoct-1-en-3-one] | 1 | 43 | 43** % |

| SMILES | activity at 100 µM [%] | remaining activity at 100 µM [%] | Relative RhlR activity Antagonism |
| --- | --- | --- | --- |
| CCCC(O)CC(=O)CCc1ccc(O)c(F)c1 (centres unmarked) [Compound 12m, 1-(3-Fluoro-4-hydroxyphenyl)-5-hydroxyoctan-3-one] | 1 | 73 | – |
| CCCCCC(O)/C=C/c1ccc(F)c(F)c1 (centres unmarked) [Compound 15a, (E)-1-(3,4-Difluorophenyl)oct-1-en-3-ol] | 5 | 55 | – |
| CCCC(O)CC(=O)/C=C/c1ccc(F)cc1 (centres unmarked) [Compound 11g, (E)-1-(4-Fluorophenyl)-5-hydroxyoct-1-en-3-one] | 1 | 33 | 33** % |
| CCCC(O)CC(=O)CCc1ccc(Cl)cc1 (centres unmarked) [Compound 12h, 1-(4-Chlorophenyl)-5-hydroxyoctan-3-one] | 2 | 69 | – |
| CCCC(O)CC(=O)CCc1ccc(O)c(O)c1 (centres unmarked) [Compound 12k, 1-(3,4-Dihydroxyphenyl)-5-hydroxyoctan-3-one] | 2 | 47 | – |
| CCCC(O)CC(=O)CCc1ccc(OC)cc1 (centres unmarked) [Compound 12f, 5-Hydroxy-1-(4-methoxyphenyl)octan-3-one] | 2 | 71 | – |
| CCCCC(O)CC(=O)CCc1ccc(O)c(OC)c1 (centres unmarked) [Compound 3, 5-Hydroxy-1-(4-hydroxy-3-methoxyphenyl)nonan-3-one] | 2 | 62 | – |
| CCCC(O)CC(=O)CCc1cccc(O)c1 (centres unmarked) [Compound 12e, 5-Hydroxy-1-(3-hydroxyphenyl)octan-3-one] | 2 | 81 | – |
| CCCC(O)CC(=O)CCc1ccc(OC)c(OC)c1 (centres unmarked) [Compound 12l, 1-(3,4-Dimethoxyphenyl)-5-hydroxyoctan-3-one] | 1 | 94 | – |
| CCCCCCC(O)CC(=O)CCc1ccc(O)c(OC)c1 (centres unmarked) [Compound 5, 5-Hydroxy-1-(4-hydroxy-3-methoxyphenyl)undecan-3-one] | 3 | 83 | – |
| CCCCC[C@@H](O)C#Cc1ccc(F)c(F)c1 [Compound 35b, (R)-1-(3,4-Difluorophenyl)oct-1-yn-3-ol] | 3 | 72 | – |
| CCCC(O)CC(=O)CCc1cc(F)cc(OC)c1 (centres unmarked) [Compound 12r, 1-(3-Fluoro-5-methoxyphenyl)-5-hydroxyoctan-3-one] | 3 | 85 | – |
| CCCC(O)CC(=O)CCc1cccc(OC)c1 (centres unmarked) [Compound 12c, 5-Hydroxy-1-(3-methoxyphenyl)octan-3-one] | 2 | 90 | – |
| CCCC(O)CC(=O)CCc1ccc(F)c(OC)c1 (centres unmarked) [Compound 12q, 1-(4-Fluoro-3-methoxyphenyl)-5-hydroxyoctan-3-one] | 1 | 79 | – |
| CCCCCC(O)/C=C/c1ccc(O)c(OC)c1 (centres unmarked) [Compound 15b, (E)-4-(3-Hydroxyoct-1-en-1-yl)-2-methoxyphenol] | 2 | 41 | 41** % |
| CCCC[C@@H](O)C#Cc1ccc(F)c(F)c1 [Compound 34b, (R)-1-(3,4-Difluorophenyl)hept-1-yn-3-ol] | 3 | 67 | – |
| CCCC[C@H](O)C#Cc1ccc(F)c(F)c1 [Compound 34c, (S)-1-(3,4-Difluorophenyl)hept-1-yn-3-ol] | 2 | 64 | – |
| CCCC(O)CC(=O)CCc1ccc(F)cc1 (centres unmarked) [Compound 12g, 1-(4-Fluorophenyl)-5-hydroxyoctan-3-one] | 2 | 51 | – |
| CCCCC[C@H](O)C#Cc1ccc(F)c(F)c1 [Compound 35c, (S)-1-(3,4-Difluorophenyl)oct-1-yn-3-ol] | 4 | 67 | – |
| CCCC(O)CC(=O)CCc1ccc(O)cc1 (centres unmarked) [Compound 12d, 5-Hydroxy-1-(4-hydroxyphenyl)octan-3-one] | 3 | 64 | – |
| CCCCCC(=O)/C=C/c1ccc(O)c(OC)c1 [Compound 13b, (E)-1-(4-Hydroxy-3-methoxyphenyl)oct-1-en-3-one] | 2 | 41 | 41** % |
